# Laboratory results: patent US20040087606A1, “Shivering suppression during cooling to lower body temperature” (priority 2002, published 2004)
# Where “and” joins values, the source holds several entries; their conditions need not be identical. Equal entries are not always repeated.
# What was measured:
# Format in all cases: in vivo, human
# [1] = system: healthy subjects; test: Phase 4: as Phase 3a, meperidine plus oral buspirone
# Method: (§1) Five contact pads are applied to the thighs, back and abdomen of each subjects, and actively cooled. Temperatures are measured in the same manner as in Phase 1 except that the rectal temperature probe is connected to a control module and the rectal temperature signal is used by the control module to adjust inlet water temperature via a feedback control algorithm to achieve a target core body temperature of 34.5° C.
# (§2) A single oral dose of acetaminophen (1000 mg), is administered within 20 minutes prior to treatment. A bolus of IV meperidine (Demerol®, 50-100 mg) is given within 5 minutes of the start of active cooling. Additional doses of meperidine are administered to maintain comfort and to prevent shivering. Active cooling and maintenance of hypothermia continues for five hours. As in the Phase 1, the subjects are actively re-warmed to a tympanic temperature of 36° C. prior to termination of the experiment. Shivering, comfort, oxyhemoglobin saturation, and arterial blood pressure are recorded as in Phase 1.
# Phase 4 proceeds as described for Phase 3a, except as noted. In addition to meperidine (Demerol®), subjects are also given an oral dose of 30-60 mg buspirone.
# [2] = system: healthy subjects; test: Phases 1 and 3a taken together: haemodynamics, comfort, respiratory compromise, nausea
# Method: (§3) Four contact pads are applied to the thighs and chest of each subject and each subject is rapidly cooled with an objective of reducing core body temperature to 34-35° C. Core body temperatures are measured at the tympanic membrane and the rectum. Mean skin-surface temperature is determined from the weighted average of calf, thigh, chest, and upper arm skin temperatures. Thermoregulatory vasoconstriction is evaluated using forearm minus fingertip skin-temperature gradients. Temperatures are measured using Mon-a-Therm™ themocouple probes connected to Mallinckrodt Model 6510 two-channel electronic thermometers having an accuracy near 0.1° C. (Mallinckrodt Anesthesia Products, St. Louis, Mo., U.S.A.). Temperatures are recorded before cooling is started (i.e., baseline) and subsequently at 15-minute intervals.
# (§4) Each of subjects 1-5 is administered a single dose of acetomiophen (1000 mg) within 20 minutes prior to treatment and is administered a bolus of intravenous (IV) meperidine (Demerol®, 25-75 mg) within 5 minutes of the start of cooling. Subjects also receive initial doses of chlorpromazine (Thorazine®12.5-25 mg, IV). Active cooling is initiated and the inlet water temperature is controlled to achieve a target tympanic temperature between 34° C. and 35° C. Additional doses of meperidine and/or chloropromazine are administered to maintain comfort and to prevent shivering. Active cooling and maintenance of hypothermia continues for up to five hours, after which subjects are actively re-warmed to a tympanic temperature of 36° C.
# (§5) The presence of shivering is noted by physical examination, electromyographic artifact on continuous electrocardiography (ECG), or by subject report. Overall thermal comfort is evaluated at 15-min intervals with a 100-mm-long visual analog scale (VAS) on which 0 mm defines the worst imaginable cold, 50 mm identifies thermal neutrality, and 100 mm indicates unbearable heat. A new, unmarked scale is used for each assessment. Heart rate and oxyhemoglobin saturation are monitored using ECG and pulse oximetry; arterial blood pressure is recorded oscillometrically at 15-minute intervals.
# as §1, §2
# [3] = system: healthy subjects; test: Phase 3a: contact-pad cooling to target core temperature 34.5° C. with meperidine
# Text: (§6) Mild hypothermia is induced and maintained in healthy subjects for up to several hours. Each volunteer is cooled using contact pads (Arctic Sun Energy Transfer Pads™, Medivance, Inc., Louisville, Colo., U.S.A.). Contact pads are applied to contact the subjects, and water at a controlled temperature is delivered to and circulated through the contact pads to effect the controlled cooling of each volunteer.
# as §1, §2
# [4] = system: healthy subjects; test: Phase 5: as Phase 3a, meperidine plus IV ondansetron
# Method: as §1, §2
# Phase 5 proceeds as described for Phase 3a, except as noted. The temperature of water circulated to the contact pads is controlled to achieve a target core body temperature of 34.5° C. In addition to meperidine (Demerol®), subjects are also given an IV dose of 8 mg ondansetron (hydrochloride salt, Glaxo Wellcome).
# [5] = system: healthy subjects; test: Phase 1: induced mild hypothermia by contact-pad cooling with meperidine for shivering suppression
# Text: as §6, §3, §4, §5
# [6] = Phase 4, individual subjects, meperidine plus oral buspirone 30-60 mg
# [7] = Phase 4, mean ± SD, 4 subjects, meperidine plus buspirone
# [8] = individual subjects, meperidine
# [9] = Phase 5, individual subjects, meperidine plus IV ondansetron 8 mg
# [10] = Phase 5, mean ± SD, 4 subjects, meperidine plus ondansetron
compound,measurement,setting,value
O=C1CC2(CCCC2)CC(=O)N1CCCCN1CCN(c2ncccn2)CC1 [buspirone],Effect on incidence of nausea,[1]; in vivo,did not reduce the incidence of nausea
CCOC(=O)C1(c2ccccc2)CCN(C)CC1 [meperidine],Systolic blood pressure,"[2]; 180 min timepoint, baseline 122±13, p=0.042",140±20 mm Hg
same,Respiratory compromise,[2]; Phases 1 and 3a,no respiratory compromise is observed
same,Subjects in whom nausea is observed,"[2]; Phases 1 and 3a, all cases in Phase 3a",30%
same,Change in blood oxygenation compared with baseline,"[2]; all subjects, during cooling",no statistically significant change
same,Change in diastolic blood pressure compared with baseline,"[2]; all subjects, during cooling",no statistically significant change
same,Change in heart rate compared with baseline,"[2]; all subjects, during cooling",no statistically significant change
same,Cooling rate to 35° C.,[1]; [6],1.1 ° C./hr (2×) and 1.9 ° C./hr and 0.8 ° C./hr
same,Nausea or Vomiting During Treatment,[1]; [6],"Nausea early, and Vomiting end and None and Nausea mid and Nausea end"
same,Time to 35° C.,[1]; [6],105 min and 95 min and 63 min and 158 min
same,Total Meperidine Dose,"[1]; Phase 4, individual subjects, with oral buspirone 30-60 mg",250 mg (3×) and 400 mg
same,Mean cooling rate to 35° C.,[1]; [7],1.2 ± .5 ° C./hr
same,Mean time to 35° C.,[1]; [7],105 ± 39 min
same,Mean total meperidine dose,"[1]; Phase 4, mean ± SD, 4 subjects, with buspirone",288 ± 75 mg
same,Total Meperidine Dose,"[3]; individual subjects, as needed to maintain comfort and prevent shivering, five hours",400 mg and 500 mg and 350 mg (2×) and 250 mg
same,Cooling rate to 35° C.,[3]; [8],1.9 ° C./hr and .9 ° C./hr and 1.2 ° C./hr and 1.7 ° C./hr and 1.4 ° C./hr
same,Nausea or Vomiting During Treatment,[3]; [8],"Nausea end (2×) and None and Nausea early, and Nausea, and vomiting mid"
same,Time to 35° C.,"[3]; individual subjects, tympanic temperature, IV meperidine 50-100 mg bolus plus additional doses, acetaminophen 1000 mg",64 min and 180 min and 95 min and 56 min and 53 min
same,Mean cooling rate to 35° C.,"[3]; mean ± SD, 5 subjects",1.4±0.4 ° C./hr and 1.4 ± .4 ° C./hr
same,Mean time to reach a tympanic temperature of 35° C.,"[3]; mean ± SD, 5 subjects",90 ± 53 min
same,Mean total dosage of meperidine,"[3]; mean ± SD, 5 subjects",370 ± 91 mg and 370 mg
same,Attainment of mild hypothermia,[4]; Phase 5,attained in all subjects
same,Cooling rate to 35° C.,[4]; [9],1.5 ° C./hr and 1.4 ° C./hr and 1.6 ° C./hr and 1.9 ° C./hr
same,Nausea or Vomiting During Treatment,[4]; [9],None (2×) and Nausea post and Nausea and vomiting
same,Time to 35° C.,[4]; [9],80 min and 58 min and 88 min and 60 min
same,Total Meperidine Dose,"[4]; Phase 5, individual subjects, with IV ondansetron 8 mg",275 mg and 250 mg and 325 mg and 375 mg
same,Mean cooling rate to 35° C.,[4]; [10],1.6 ° C./hr and 1.6 ± .2 ° C./hr
same,Mean time to reach a tympanic temperature of 35.0° C.,[4]; [10],72 ± 15 min
same,Mean total dosage of meperidine,"[4]; Phase 5, mean ± SD, 4 subjects, with ondansetron",306 ± 55 mg
same,Withdrawal of a subject for adverse reaction to meperidine,"[4]; Phase 5, one of five enrolled, caused a facial rash",mild allergic reaction
same,Attainment of mild hypothermia,[5]; Phase 1,attained in all subjects
same,Total Meperidine Dose,"[5]; Phase 1, individual subjects, given as needed to maintain comfort and prevent shivering, up to five hours",275 mg and 375 mg and 475 mg and 75 mg and 200 mg
same,Nausea or Vomiting During Treatment,"[5]; Phase 1, individual subjects, meperidine",Pruritis and None (4×)
same,Cooling rate to 35° C.,"[5]; Phase 1, individual subjects, meperidine for shivering suppression",1.4 ° C./hr and 1.0 ° C./hr and 1.5 ° C./hr and 2.6 ° C./hr and 1.2 ° C./hr
same,Time to 35° C.,"[5]; Phase 1, individual subjects, tympanic temperature, IV meperidine 25-75 mg bolus plus additional doses, acetaminophen 1000 mg, chlorpromazine in subjects 1 and 2",81 min and 105 min and 78 min and 41 min and 82 min
same,Mean cooling rate to 35° C.,"[5]; Phase 1, mean ± SD, 5 subjects",1.5±0.6 ° C./hr and 1.5 ± .6 ° C./hr
same,Mean time to reach a tympanic temperature of 35° C.,"[5]; Phase 1, mean ± SD, 5 subjects",77+23 min and 77 ± 23 min
same,Mean total dosage of meperidine,"[5]; Phase 1, mean ± SD, 5 subjects",280 ± 155 mg and 280 mg
Cc1nccn1CC1CCc2c(c3ccccc3n2C)C1=O (stereo not drawn) [ondansetron],Meperidine administration in Phase 5 relative to Phase 3a,"[4]; p=0.26, t-test, ondansetron 8 mg IV",trend toward less meperidine administration
